What was measured:
[1] = tested on: Staphylococcus aureus ATCC 6538; assay: In-Vitro Time-Kill assay (EN 1040:2005 with minor modifications); format: cell-based
Procedure: Inoculums of S. aureus at about 10^7.5 colony forming units per milliliter (CFU/mL) were prepared from 24-hour cultures on agar plates. […]
The log10 of (number of surviving cells (CFU/mL)/initial number of cells) is plotted versus the exposure time. […] The exposure time is limited to only 60 s, as this time frame is a realistic estimate of the amount of time devoted to hand washing.
Surfactant Solution Preparation—Solution preparation consisted of mixing the surfactant solution with an equal volume of the appropriate buffer to form a test solution containing 50% of the original formulation concentration. Sodium carbonate/bicarbonates buffers (0.1 M) were prepared for use at pH 10 and 7, respectively, while sodium acetate buffer was used at pH 5.
The bacteria were stored at −80° C. and fresh working cultures were prepared by streaking on Tryptic Soy Agar plates for 24 hours at 37° C. and then preparing second subcultures in the same way before each experiment.
Following this procedure, stationary-phase bacterial cultures at approximately […] colony forming units (CFU) per mL (GF-U) were treated with the surfactant solution (as described above) at 25° C., rather than at 20° C. as specified in the Standard. In constructing the test sample, 8 parts by weight of the surfactant solution was combined with 1 part by weight of the culture and 1 part by weight of water. After 10, 20, 30, and 60 seconds of exposure, the samples were neutralized to arrest the antibacterial activity of the surfactant solution. […] The test solutions were serially diluted, plated on solid medium, and incubated for 24 hours. The surviving cells were then enumerated. Bactericidal activity was defined as the log10 reduction in CFU relative to the initial bacterial concentration at 0 seconds. Cultures not exposed to surfactant solution acted as the no-treatment controls. The log10 reduction was calculated using the formula:
log10 reduction=log10(CFU in no-treatment control)−log10(CFU in treated sample)

[2] = cited from earlier work
[3] = Silver ion solubility derived from solubility product (Ksp) in water at 25° C.; settings: calculated from Ksp
Text: More particularly, silver ion solubility [Ag+], a value given in mol/L may be calculated using the formula:

[4] = pH 5; cited from earlier work
[5] = throughout the pH interval claimed

Compound: O=[N+]([O-])[O-].[Na+] [NaNO3, sodium nitrate]
- NaNO3 necessary to recover a one unit log10 reduction in S. aureus ([1]; in the presence of 0.03 M NaCl, SLES/Ag^+, pH 7.0): ≥ 0.3 M

Compound: CCCCCCCCCCCCOS(=O)(=O)[O-].[Na+] [SDS, sodium dodecyl sulfate]
- synergy with silver ion ([1]; pH 5): strong synergy with silver ion
- intrinsic biocidal properties ([1]; pH 5, on its own): quite biocidal on its own
- inherent biocidal action [1, 5]: limited inherent biocidal action
- synergy with silver ion [1, 5]: strong synergy with silver ion

Compound: O=C([O-])c1ccccc1.[Ag+] [Silver benzoate]
- Ksp (mol/L in water at 25° C.) [2]: 2.5e-05 mol/L

Compound: [Br][Ag] [Silver bromide]
- Ksp (mol/L in water at 25° C.) [2]: 5.3e-13 mol/L

Compound: [Cl][Ag] [Silver chloride]
- Silver Ion Solubility [Ag+] (mol/L in water at 25° C.) [3]: 1.3e-05 mol/L
- Ksp (mol/L in water at 25° C.) [2]: 1.8e-10 mol/L

Compound: O=C([O-])CC(O)(CC(=O)[O-])C(=O)[O-].[Ag+].[Ag+].[Ag+] [Silver citrate]
- Ksp (mol/L in water at 25° C.) [2]: 2.5e-16 mol/L

Compound: O=S(=O)([O-])[O-].[Ag+].[Ag+] [Silver sulfate]
- Ksp (mol/L in water at 25° C.) [2]: 1.4e-05 mol/L

Compound: O=C(O)c1ccccc1 [benzoic acid]
- percentage of organic acid preservative remaining undissociated (and active) [4]: 13%

Compound: [Ag+] [silver ion]
- minimum level of silver ion necessary to see enhanced biocidal action ([1]; in the presence of 10% SLES and 0.5 M NaNO3, pH 7 and 25° C.): ≥ 0.03 ppm

Compound: C/C=C/C=C/C(=O)O [sorbic acid]
- percentage of organic acid preservative remaining undissociated (and active) [4]: 37%

Compound: Sodium methyl cocoyl taurate [reference compound]
- synergy with silver ion ([1]; pH 5): nor does it enhance the biocidal action of silver ion
- intrinsic biocidal properties ([1]; pH 5, on its own): does not have intrinsic biocidal properties
- biocidal, inherently or in combination with silver ion ([1]; pH 7): ineffective

Compound: octyl phenol ethoxylate [Triton X-100, reference compound]
- biocidal, inherently or in combination with silver ion ([1]; pH 5, 10-60 second time scale): not biocidal
- biocidal, inherently or in combination with silver ion ([1]; pH 7): ineffective

Compound: sodium cocoyl glutamate [reference compound]
- biocidal, inherently or in combination with silver ion ([1]; pH 7): ineffective

Compound: sodium cocoyl glycinate [reference compound]
- biocidal, inherently or in combination with silver ion ([1]; pH 7): ineffective

Compound: sodium lauroamphoacetate [reference compound]
- biocidal, inherently or in combination with silver ion ([1]; pH 7): ineffective

Compound: sodium lauryl ether sulfate [SLES]
- synergy with silver ion ([1]; pH 5): strong synergy with silver ion
- log10 reduction ([1]; pH 5, on its own): about 2 log10
- log10 unit reduction ([1]; pH 7, SLES at 1% (top-half of Table 5)): ≤ 1 log10
- log10 unit reduction ([1]; pH 7, SLES at 10% (second half of Table 5)): ≤ 1 log10

Compound: sodium lauryl ether sulfate with (on average) 1 ethoxy group [SLES-1 EO]
- log10 reduction ([1]; pH range of 7-10, in the presence of silver ion): about 4 log10
- log10 reduction ([1]; pH range of 7-10, without silver): about 0.5 log10
- inherent biocidal action [1, 5]: limited inherent biocidal action
- synergy with silver ion [1, 5]: strong synergy with silver ion

Compound: sodium lauryl ether sulfate with (on average) 3 ethoxy groups [SLES-3EO]
- inherent biocidal action [1, 5]: limited inherent biocidal action
- synergy with silver ion [1, 5]: strong synergy with silver ion

Source: patent US20230124634A1, “ANTIBACTERIAL COMPOSITION” (CONOPCO, INC., D/B/A UNILEVER, priority 2020, published 2023)
